Results: PMC7073080, “Characterization of Convergent Suppression by UCL-2077 (3-(Triphenylmethylaminomethyl)pyridine), Known to Inhibit Slow Afterhyperpolarization, of erg-Mediated Potassium Currents and Intermediate-Conductance Calcium-Activated Potassium Channels” (International Journal of Molecular Sciences, 2020)

Biological target: T1, erg-mediated K+ channel (Kerg, KV11.1) (Rattus norvegicus, UniProt O08962)
T1 construct: gene Kcnh2; native channel in pituitary GH3 cells
T1 sequence (O08962 1-1163): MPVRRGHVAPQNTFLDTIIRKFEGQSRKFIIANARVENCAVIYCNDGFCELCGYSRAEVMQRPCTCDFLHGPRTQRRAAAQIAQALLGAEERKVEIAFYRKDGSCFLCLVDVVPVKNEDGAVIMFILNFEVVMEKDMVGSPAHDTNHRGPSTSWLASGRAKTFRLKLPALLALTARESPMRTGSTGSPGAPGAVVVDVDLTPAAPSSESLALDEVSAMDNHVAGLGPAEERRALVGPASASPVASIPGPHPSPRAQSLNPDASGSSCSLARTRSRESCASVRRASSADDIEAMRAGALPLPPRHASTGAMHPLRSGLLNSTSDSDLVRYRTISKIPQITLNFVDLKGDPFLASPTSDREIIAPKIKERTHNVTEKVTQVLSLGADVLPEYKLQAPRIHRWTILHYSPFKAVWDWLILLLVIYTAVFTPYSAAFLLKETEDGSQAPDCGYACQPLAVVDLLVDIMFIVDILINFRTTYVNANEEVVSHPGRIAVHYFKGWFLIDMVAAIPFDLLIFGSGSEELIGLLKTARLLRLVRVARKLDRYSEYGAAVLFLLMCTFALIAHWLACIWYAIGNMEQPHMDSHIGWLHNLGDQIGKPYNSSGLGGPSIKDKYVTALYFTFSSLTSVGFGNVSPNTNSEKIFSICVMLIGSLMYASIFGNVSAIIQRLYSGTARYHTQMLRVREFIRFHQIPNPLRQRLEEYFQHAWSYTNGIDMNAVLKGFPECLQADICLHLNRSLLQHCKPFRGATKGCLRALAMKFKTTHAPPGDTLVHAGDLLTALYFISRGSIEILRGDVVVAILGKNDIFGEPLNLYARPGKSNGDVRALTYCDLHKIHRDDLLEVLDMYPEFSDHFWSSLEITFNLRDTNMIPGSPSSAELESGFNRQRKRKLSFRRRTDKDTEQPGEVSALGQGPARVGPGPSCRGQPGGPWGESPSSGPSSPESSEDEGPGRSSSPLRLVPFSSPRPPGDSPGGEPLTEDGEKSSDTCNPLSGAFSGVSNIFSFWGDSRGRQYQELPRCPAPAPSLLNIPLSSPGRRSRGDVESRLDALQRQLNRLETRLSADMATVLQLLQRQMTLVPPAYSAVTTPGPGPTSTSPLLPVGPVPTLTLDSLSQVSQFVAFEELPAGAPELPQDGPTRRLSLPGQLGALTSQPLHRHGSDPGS
Assay: whole-cell patch clamp, concentration-response of IK(erg); KCNH2 siRNA knockdown
Assay type: cell-based
Conditions: gh3 cells

Work on `c1ccc(C(NCc2cccnc2)(c2ccccc2)c2ccccc2)cc1` [UCL-2077, 3-(triphenylmethylaminomethyl)pyridine] yielded an IC50 of 4.7 µM.
